Measured values as given in patent US20050288187A1, “Inhibitor development for 4-hydroxyphenylpyruvate dioxygenase, employing tyrosinemia 1 as a model for human diseases mediated by 2-oxoacid utilizing dioxygenases” (priority 2002, published 2005).

Key:
prolyl 4-hydroxylase = details: U.S. Pat. Nos. 5,789,426; 5,965,585; 5,965,586; cited from earlier work
P4-H [1] = assay: Collagen-derived serum biomarkers (PIIINP, NC1, NTD) for P4-H activity in a tyrosinemia I patient during NTBC treatment; format: in vivo, human
Method: A total of ten biomarkers were monitored from just before initiation of NTBC medication to up to 103 days of treatment, generating a total of 60 data points. […] P4-H activity was assessed via specific antigens released from three different groups of collagens, all of which are substrates for this enzyme. These biomarkers, quantified by specific radioimmunoassay, consisted of PIIINP, an indicator for the fibril-forming collagen type III; NC1, a marker for the sheet-forming collagen type IV; and NTD, an indicator for the beaded filament-forming collagen type VI. The P1 antigen, derived from the non-collagenous protein laminin and thus not dependent on P4-H activity, served as control.

laminin P1 antigen = assay: Control biomarker P1 antigen of laminin (P4-H independent) during NTBC treatment; format: in vivo, human; details: P4-H independent protein
Excerpt: Inherit Metab. […] Res. 39:[…]

P4-H [2] = details: one other tyrosinemic child (Pitkanen et al. 1999); cited from earlier work

Compound | inhibition of prolyl 4-hydroxylase (prolyl 4-hydroxylase) | NCI (collagen type IV biomarker) rise over initial value (P4-H [1]; after 103 days on NTBC) [factor] | NTC (collagen type VI biomarker) rise over initial value (P4-H [1]; after 103 days on NTBC) [factor] | biomarkers for P4-H activity (PIIINP, NC1, NTD), response to NTBC (P4-H [1]; three months study period) | laminin P1 antigen, response to NTBC treatment (laminin P1 antigen) | initially elevated PIIINP level, response to treatment with NTBC (P4-H [2])
Cc1c(O)c(=O)ccn1C [DMHP, 1,2-dimethyl-3-hydroxypyrid-4-one] | known inhibitors of prolyl 4-hydroxylase | – | – | – | – | –
O=C1CCCC(=O)C1C(=O)c1ccc(C(F)(F)F)cc1[N+](=O)[O-] [NTBC, 2-(2-nitro-4-trifluoromethylbenzoyl)-cyclohexane-1,3-dione] | – | 1.1 | 1.1 | entirely unresponsive | unresponsive | non-responsive
